From paper PMC4938538, “Inhibition of Pig Phosphoenolpyruvate Carboxykinase Isoenzymes by 3-Mercaptopicolinic Acid and Novel Inhibitors” (PLoS ONE, 2016)
Changes are numbered by the printed parent chain. Several values for one entry are separate records, joined by “and”; a condition that tells them apart may be missing. Identical values can stand only once. Entries after “also recorded” stand apart in the source; their conditions may differ. Like-named read-outs stand apart in the source and are kept apart here.

Tests used:
PEPCK-C 139Met = target: T1, PEPCK-C 139Met (Sus scrofa, UniProt A0A4X1UM84); test: 3-MP inhibition kinetics (double reciprocal, secondary and Dixon plots); format: biochemical, pig; set-up: made in house; host or cells: Escherichia coli BL21 (DE3)
T1 sequence (A0A4X1UM84 1-622): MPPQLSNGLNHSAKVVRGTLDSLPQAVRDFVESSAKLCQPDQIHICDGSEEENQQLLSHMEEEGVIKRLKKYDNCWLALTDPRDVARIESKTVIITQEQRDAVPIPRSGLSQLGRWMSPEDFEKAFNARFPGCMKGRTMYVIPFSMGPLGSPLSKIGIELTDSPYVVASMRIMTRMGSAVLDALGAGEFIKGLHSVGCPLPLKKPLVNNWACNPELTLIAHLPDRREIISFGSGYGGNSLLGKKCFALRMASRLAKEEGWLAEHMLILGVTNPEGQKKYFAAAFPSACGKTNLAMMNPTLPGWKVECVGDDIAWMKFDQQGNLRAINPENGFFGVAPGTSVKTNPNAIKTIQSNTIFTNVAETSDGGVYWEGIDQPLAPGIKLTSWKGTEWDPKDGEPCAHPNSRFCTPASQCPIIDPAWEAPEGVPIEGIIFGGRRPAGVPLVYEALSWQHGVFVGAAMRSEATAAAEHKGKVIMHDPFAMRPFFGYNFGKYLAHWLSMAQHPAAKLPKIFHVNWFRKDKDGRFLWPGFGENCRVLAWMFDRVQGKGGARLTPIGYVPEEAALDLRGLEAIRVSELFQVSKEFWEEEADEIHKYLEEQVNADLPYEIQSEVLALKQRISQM
Protocol: (§1) PEPCK-C activity was measured in an UNICAM 500 spectrometer (UNICAM Analytical Systems, UK) with coupled spectrophotometric assays using pyruvate kinase and lactate dehydrogenase as auxiliary enzymes in PEP synthesis reaction and malate dehydrogenase in the reverse reaction.
(§2) 3-MP inhibitions assays in OAA synthesis direction were carried out as described before with the exception of the variable substrate (50–600 μM for PEP and 10–100 μM for GDP) and 3-MP concentration (10–100 μM). Assays in the direction of PEP synthesis were performed in 1 mL of a 100 mM HEPES buffer pH 7.4, containing 10 mM DTT, 0.2 mM MnCl2, 2 mM MgCl2, 1 mM GTP or 400 μM OAA, 1 mM ADP, 0.2 mM NADH, PEPCK-C and 5 units of each pyruvate kinase and lactate dehydrogenase. Reactions were initiated by addition of OAA. Variable substrates were 5–50 μM OAA or 25–500 μM GTP and 3-MP concentrations were between 10–400 μM. Rates were calculated by measuring the decreasing slope at 340 nm of absorbance after subtracting the rate of spontaneous NADH oxidation in the case of OAA synthesis or the rate of the blank which contained all the components of the mix but PEPCK-C in the case of PEP synthesis.
(§3) 3-MP inhibition assays were fitted in double reciprocal plots. To describe the mixed non-competitive inhibition, the double reciprocal equation can be written as: 1/v = Km/Vmax (1+[I]/Ki) 1/[S]+1/Vmax (1+[I]/αKi) (2)
(§4) Ki and αKi are the dissociation constants of the enzyme-inhibitor complex and the enzyme-inhibitor-substrate complex, respectively.
(§5) The equation for the Dixon plot is: 1/v = Km/Vmax[S]+1/Vmax+Km/Vmax[S]Ki (5)

PEPCK-C 139Leu = target: T2, PEPCK-C 139Leu (Sus scrofa, UniProt A0A4X1UM84, M139L); test: as above; format: biochemical, pig
T2 construct: made in house; host or cells: Escherichia coli BL21 (DE3)
T2 sequence (A0A4X1UM84 1-622 M139L): T1 sequence (A0A4X1UM84 1-622) with M139L
Protocol: as §1, §2, §3, §4, §5

Pattern of inhibition (GDP) (PEPCK-C 139Met; 139Met, GDP as variable substrate): uncompetitive inhibitor
Pattern of inhibition (GTP) (PEPCK-C 139Met; 139Met, GTP as variable substrate): uncompetitive inhibitor
αKi (OAA) (PEPCK-C 139Met; 139Met, OAA as variable substrate, PEP synthesis direction): 49 ± 18 µM
Ki (PEPCK-C 139Met; 139Met, OAA as variable substrate, PEP synthesis direction, read-out: Ki (OAA)): 18 ± 4 µM
αKi (PEP) (PEPCK-C 139Met; 139Met, PEP as variable substrate, OAA synthesis direction): 20 ± 4 µM
Ki (PEPCK-C 139Met; 139Met, PEP as variable substrate, OAA synthesis direction, read-out: Ki (PEP)): 16 ± 2 µM
Ki (PEPCK-C 139Met; 139Met, with respect to GDP, Dixon plot, substrates saturating, read-out: Ki (GDP)): 45 ± 3 µM
Ki (PEPCK-C 139Met; 139Met, with respect to GTP, Dixon plot, substrates saturating, read-out: Ki (GTP)): 273 ± 68 µM
Ki fold lower for 139Met than 139Leu (GTP) (PEPCK-C 139Met; GTP as variable substrate): 3 fold
Ki fold lower for 139Met than 139Leu (OAA) (PEPCK-C 139Met; OAA as variable substrate): 1.6 fold
Pattern of inhibition (GDP) (PEPCK-C 139Leu; 139Leu, GDP as variable substrate): uncompetitive inhibitor
Pattern of inhibition (GTP) (PEPCK-C 139Leu; 139Leu, GTP as variable substrate): uncompetitive inhibitor
αKi (OAA) (PEPCK-C 139Leu; 139Leu, OAA as variable substrate, PEP synthesis direction): 21 ± 13 ns μM
Ki (PEPCK-C 139Leu; 139Leu, OAA as variable substrate, PEP synthesis direction, read-out: Ki (OAA)): 29 ± 1 µM
αKi (PEP) (PEPCK-C 139Leu; 139Leu, PEP as variable substrate, OAA synthesis direction): 31 ± 5 μM and 31 ± 5 ns μM
Ki (PEPCK-C 139Leu; 139Leu, PEP as variable substrate, OAA synthesis direction, read-out: Ki (PEP)): 19 ± 4 µM
Ki (PEPCK-C 139Leu; 139Leu, with respect to GDP, Dixon plot, substrates saturating, read-out: Ki (GDP)): 45 ± 0.8 µM
Ki (PEPCK-C 139Leu; 139Leu, with respect to GTP, Dixon plot, substrates saturating, read-out: Ki (GTP)): 873 ± 144 µM
Ki for 139Leu larger than for 139Met (OAA binding) (PEPCK-C 139Leu; OAA as variable substrate): 50%
Compound: O=C(O)c1ncccc1S [3-MP, 3-mercaptopicolinic acid]
Pattern of inhibition (OAA) (PEPCK-C 139Met; 139Met, OAA as variable substrate): mixed non-competitive inhibitor; also recorded: Mixed NC
Pattern of inhibition (PEP) (PEPCK-C 139Met; 139Met, PEP as variable substrate): mixed non-competitive inhibitor; also recorded: Mixed NC
Pattern of inhibition (OAA) (PEPCK-C 139Leu; 139Leu, OAA as variable substrate): mixed non-competitive inhibitor; also recorded: Mixed NC
Pattern of inhibition (PEP) (PEPCK-C 139Leu; 139Leu, PEP as variable substrate): mixed non-competitive inhibitor; also recorded: Mixed NC
